In patent US10792331B2, “Methods for reducing cardiotoxicity from chemotherapy by administering humanin analog compositions” (LOS ANGELES BIOMEDICAL RESEARCH INSTITUTE AT HARBOR-UCLA …, priority 2015, dated 2020):
“Also recorded” adds a separate entry of the source. Where two headings read alike, the source gives them in different places. Ends that are not written are not given here.

Assays:
[1] = test system: DOX induced cardiotoxicity; assay: Example 2: echocardiogram ejection fraction, Dox, HNG and DRZ alone or in combinations; assay type: in vivo, mouse
Method: In this second experiment, adult male mice were used. These mice received for 8 weeks IP injections of saline daily (control), Doxorubicin (DOX 3 mg/week IP for 8 injections), HNG 5 mg/day IP), Dexrazoxane (DRZ 60 mg/week IP at the same time as Doxorubicin) either alone or in combinations as shown in FIG. 5. All animals received 8 weeks of injections.

[2] = test system: nuclear-gene-encoded mitochondrial gene expression; assay: Example 3: mitochondrial gene focused qRT-PCR array of mouse hearts
cardiac fibrosis [3] = assay: Example 3: Masson's Trichrome quantification of fibrosis in hearts; conditions: for cardiac fibrosis: compared to controls
[4] = test system: Dox-induced cardiotoxicity mouse model; assay: Example 3: M-mode echocardiography of cardiac function
cardiomyocytes [5] = assay: Example 3: cardiomyocyte apoptosis by tropomyosin/TUNEL co-localization; conditions: for cardiomyocytes apoptosis: ten weeks, compared to control
[6] = Example 3: outcome and general health (deaths, body weight, heart weight)
[7] = cited from earlier work
[8] = test system: uncoupling protein 2 (Ucp2); assay: Example 3: Ucp2 protein by ProteinSimple (Wes) assay in ventricle lysates; assay type: in vivo, mouse
Method: Left ventricle samples from mice were sonicated in RIPA buffer (Sigma) supplemented with EDTA-free protease inhibitor cocktail tablets (Roche), and cell debris removed by centrifugation. The protein concentration was analyzed by Bio-Rad Protein Assay and measured by Beckman Du-640 Spectrophotometer.
Protein measurement for the uncoupling protein 2 (Ucp2) was performed using ventricle tissue lysates from control, Dox only, Dox+HNG, Dox+DRZ, and Dox+HNG+DRZ treated mice. Protein expression was quantified by Wes Separation Module with 25 Capillary Cartridges for 12-230 kDa (Wes®). Proteins (4 microgram/sample) were separated through a size-resolving matrix in capillaries, immobilized to the inner capillary wall, incubated with anti-Ucp2 rabbit monoclonal antibody (Cell Signaling) at concentration of 1 μg/ml and anti-rabbit secondary antibodies before detection using chemiluminescence. Signals reflected as the area under the curve of Ucp2 protein were generated automatically at the end of the run. The Ucp2 protein levels were quantified by a ratio of the area under the curve from each sample that was normalized by the corresponding area under the curve of the corresponding total protein.

[9] = mouse, in vivo
[10] = test system: Atrial Natriuretic Factor (ANF); assay: Example 3: real-time PCR of ANF transcripts in left ventricular tissue; conditions: for expression levels of ANF mRNA: heart, compared to control
membrane receptor = conditions: cited from earlier work
cells = conditions: compared with HN; cited from earlier work
[11] = test system: Atrial Natriuretic Factor (ANF); conditions: mouse, in vivo
[12] = test system: Dox-induced cardiotoxicity mouse model; conditions: in vivo
[13] = Example 1: DOX ± HNG in B16 cell transplanted mice study, body weight and survival; conditions: for Body weight: B16 inoculated C57BL/6 male mice, DOX 5 mg/Kg weekly IP, HNG 5 mg/Kg daily IP
Method: Mouse B16 melanoma cells were cultured in 75 cm^2 flasks and incubated at 37° C. in a humidified chamber with 5% CO2 to generate enough cells for inoculating 10,000 cells/mouse×40 mice. After 5-7 days culture, B16 cells were collected and cell viability determined using the Trypan Blue stain and the number of living cells were counted under microscope.
Treatment Schedule: 7 weeks old C57BL/6 male mouse, control without tumor inoculation (n=6) and four other groups (n=10 each group) received B16 tumor cells (10,000/mouse) injection under the skin in the right flank. One group was not treated; another group received HNG IP injection, 5 mg/Kg BM, daily×40 days (HNG); the third group received Doxorubicin (DOX), IP injection, 5 mg/Kg BW, weekly×6 injections; and the last group DOX+HNG (Table 5).
The mice in the DOX treated group would receive 6 weekly injections of DOX and daily injection of HNG until Day 40. Body weights and tumor cell injection site were checked 3 times per week. Echocardiogram was scheduled at day 26 and repeated at day 40. Twenty four hours after echocardiogram examination, animals were sacrificed; whole blood, plasma, epididymis, heart, lung, testis, liver, spleen, kidney, intestine, muscle, skin, and femur bone were collected. Sperm in the cauda epididymis were counted and COMET assay for DNA damage of sperm assessed. Whole blood was collected for CBC analysis and plasma saved for measurement of HNG level or other bio-parameters. Testes were fixed in Bouin's or formaldehyde for immunohistochemistry and TUNEL analyses.

cardiac fibrosis [14] = conditions: mouse, in vivo
cardiomyocytes [15] = conditions: mouse, in vivo
IGFBP-3 = IGFBP-3 (Homo sapiens, UniProt P17936); conditions: cited from earlier work
Chain of IGFBP-3 (P17936 28-291, species assumed): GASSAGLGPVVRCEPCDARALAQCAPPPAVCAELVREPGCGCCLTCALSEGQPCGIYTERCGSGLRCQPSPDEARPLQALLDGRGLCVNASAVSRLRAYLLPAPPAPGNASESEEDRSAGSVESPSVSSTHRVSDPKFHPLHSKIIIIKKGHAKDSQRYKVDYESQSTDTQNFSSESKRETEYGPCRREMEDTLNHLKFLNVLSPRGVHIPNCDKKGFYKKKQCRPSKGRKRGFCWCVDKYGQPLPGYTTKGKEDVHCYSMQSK

[16] = patients with cancer, cited from earlier work
[17] = test system: DOX-induced cardiotoxicity; assay: Example 1: heart weight and echocardiogram in DOX ± HNG treated mice; assay type: in vivo, mouse
Method: The heart containing left and right ventricles were fixed with formalin for hematoxylin/eosin and trichrome staining and TUNEL to detect apoptotic cell. Heart sections were saved for immunohistochemistry. Pieces of left ventricle were fixed with gluteraldehyde for later mitochondria analysis by EM. Heart was snapped frozen and stored at −80 degrees (left and right atriums plus the rest of ventricles) for molecular studies (e.g. ANP/BNP).
Echocardiogram was performed on three mice from each group on day 32, and the rest of the mice on days 34 and 38. […] However when corrected for body weight, the heart: body weight ratio was not different among the groups (FIGS. 3A & 3B.)

BAX = BAX (Homo sapiens, UniProt Q07812); conditions: cited from earlier work
Chain of BAX (Q07812 whole entry, species assumed): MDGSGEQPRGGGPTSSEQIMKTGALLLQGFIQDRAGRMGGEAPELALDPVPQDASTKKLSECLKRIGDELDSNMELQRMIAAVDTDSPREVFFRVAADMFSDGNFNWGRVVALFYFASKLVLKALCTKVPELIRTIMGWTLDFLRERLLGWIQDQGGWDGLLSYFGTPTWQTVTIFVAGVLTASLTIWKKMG

[18] = 84 genes examined, threshold of 1.1 fold
[19] = positive up-regulation, negative down-regulation
[20] = echocardiogram days 32-38, vs non-treated and HNG treated mice

With `C[C@@H](CN1CC(=O)NC(=O)C1)N1CC(=O)NC(=O)C1` [DRZ, Dexrazoxane] the “DOX-induced decrease in EF, effect of co-treatment” value ([1]; DOX treated mice, HNG 5 mg/day IP, DRZ 60 mg/week IP) was “ameliorated”, the “Dox-induced Ucp2 and Ucp3 mRNA expression, effect of co-treatment” value ([2]; qRT-PCR, Dox-treated mice) was “reversed Dox-induced Ucp2 and Ucp3 mRNA expression to control levels” and the cardiac fibrosis (cardiac fibrosis [3]) was “no changes of fibrosis”. The “Dox-induced cardiac fibrosis, effect of co-treatment” value (cardiac fibrosis [3]; in Dox-treated mice) was “did not reduce Dox-induced cardiac fibrosis”, the “Dox-induced cardiac dysfunction, protective effect” value ([4]; Dox-treated mice, summary) was “improved heart function impaired by Dox treatment” and the “cardiac parameters (heart rate, LV posterior wall thickening, fractional shortening, ejection fraction)” value ([4]; without Dox, compared to controls across the treatment period) was “did not show any altered cardiac parameters”. For the same molecule, the “Dox-induced cardiomyocytes apoptosis, effect of co-treatment” value (cardiomyocytes [5]; Dox-treated mice, ten weeks after treatment) was “no markedly protective effect”, the cardiomyocytes apoptosis (cardiomyocytes [5]) was “did not induce significant levels of cardiomyocytes apoptosis” and the “Dox-induced BW loss, effect of co-treatment” value ([6]; in Dox-treated mice) was “attenuated the Dox-induced BW loss”. For the same molecule, the testicular toxicity ([7]; has been shown) was “induce testicular toxicity”, the significant adverse events ([7]; patients receiving high doses of anthracyclines) was “decreased granulocytes and platelets” and the “Ucp2 protein suppressed by Dox, effect of co-treatment” value ([8]; Dox-treated mice) was “significantly normalized Ucp2 protein suppressed by Dox to control levels”. For the same molecule, the “body weight (BW) at the end of 10 weeks” value [9] was “no significant adverse effect on body weight”, the “Dox-increased ANF expression, effect of addition” value ([10]; added to Dox-treated mice) was “returned expression of ANF to control levels” and the “expression levels of ANF mRNA” value [10] was “did not significantly altered ANF transcripts”.
In the case of “HN-S7A: HN mutant, Ser7 to Ala; MAPRGFACLLLLTSEIDLPVKRRA (SEQ ID NO: 35)”, the “Characteristics: membrane receptor binding” value (membrane receptor) is listed as “Loss of membrane receptor” and the “Cytoprotective Action” value (cells) is listed as “Not effective, prevents HN self-”.
With MAPRGFSCLLLLTGEIDLPVKRRA [HNG] the “expression levels of ANF mRNA” value [11] was “did not significantly altered ANF transcripts”, the “cardiac parameters (heart rate, LV posterior wall thickening, fractional shortening, ejection fraction)” value [12] was “did not show any altered cardiac parameters” and the Body weight [13] was “gained weight; also recorded: increased weight”. For the same molecule, the cardiac fibrosis (cardiac fibrosis [14]) was “no changes of fibrosis”, the “body weight (BW) at the end of 10 weeks” value ([6]; surviving mice, compared to control) was “no significant adverse effect on body weight” and the cardiomyocytes apoptosis (cardiomyocytes [15]) was “did not induce significant levels of cardiomyocytes apoptosis”.
For “HN-C8A: HN mutant, Cys8 to Ala; MAPRGFSALLLLTSEIDLPVKRRA (SEQ ID NO: 33)”, the “Characteristics: membrane receptor binding” value (membrane receptor) is given as “Loss of membrane receptor” and the “Cytoprotective Action” value (cells) is given as “Not effective, prevents HN self-”.
For “HN-L12A: HN mutant, Leu12 to Ala (MAPRGFSCLLLATSEIDLPVKRRA; UniProt Q8IVG9 1-24, looked up, variant L12A)”, the “Cytoprotective Action” value (cells) is given as “HN antagonist, forms inactive”.
For “HN-F6A: HN mutant, Phe6 to Ala (MAPRGASCLLLLTSEIDLPVKRRA; UniProt Q8IVG9 1-24, looked up, variant F6A)”, the “Characteristics: IGFBP-3 binding” value (IGFBP-3) is given as “Loss of IGFBP-3 binding” and the “Cytoprotective Action” value (cells) is given as “Similar/more effective than HN”.
With `COc1cccc2c1C(=O)c1c(O)c3c(c(O)c1C2=O)C[C@@](O)(C(=O)CO)C[C@@H]3O[C@H]1C[C@H](N)[C@H](O)[C@H](C)O1` [DOX, Doxorubicin] the “Ejection fraction (EF)” value ([1]; adult male mice, DOX 3 mg/week IP for 8 injections, FIG. 6) was “highly significant decrease in EF”, the “number of genes down-regulated as compared to control” value [2, 18] was 5 genes and the “number of genes up-regulated as compared to control” value [2, 18] was 78 genes. For the same molecule, the “number of genes upregulated as compared to control” value ([2]; 84 genes examined, threshold of 2-fold) was 12 genes, the “Bbc3 Dox-induced gene expression (Fold changes as compared to control)” value [2, 19] was 3.27 Fold changes and the “Bcl2 Dox-induced gene expression (Fold changes as compared to control)” value [2, 19] was 2.23 Fold changes. For the same molecule, the “Cox18 Dox-induced gene expression (Fold changes as compared to control)” value [2, 19] was 2.01 Fold changes, the “NefI Dox-induced gene expression (Fold changes as compared to control)” value [2, 19] was 3.07 Fold changes and the “Sfn Dox-induced gene expression (Fold changes as compared to control)” value [2, 19] was 2.55 Fold changes. For the same molecule, the “Slc25a17 Dox-induced gene expression (Fold changes as compared to control)” value [2, 19] was 2.00 Fold changes, the “Slc25a20 Dox-induced gene expression (Fold changes as compared to control)” value [2, 19] was 2.53 Fold changes and the “Slc25a21 Dox-induced gene expression (Fold changes as compared to control)” value [2, 19] was 2.35 Fold changes. The “Slc25a22 Dox-induced gene expression (Fold changes as compared to control)” value [2, 19] was 3.12 Fold changes, the “Slc25a23 Dox-induced gene expression (Fold changes as compared to control)” value [2, 19] was 5.83 Fold changes and the “Ucp2 Dox-induced gene expression (Fold changes as compared to control)” value [2, 19] was 2.03 Fold changes. For the same molecule, the “Ucp3 Dox-induced gene expression (Fold changes as compared to control)” value [2, 19] was 2.73 Fold changes, the “Ucp2 and Ucp3 mRNA expression” value ([2]; qRT-PCR, heart) was “increased Ucp2 and Ucp3 mRNA expression” and the cardiac fibrosis (cardiac fibrosis [3]) was “significantly induced a cardiac fibrosis response”. The ejection fraction ([4]; 9.5 weeks after treatment) was “significantly decreased”, the fractional shortening ([4]; 9.5 weeks after treatment) was “significantly decreased” and the heart rate ([4]; 9.5 weeks after treatment) was “significantly decreased”. For the same molecule, the “left ventricle posterior wall thickening” value ([4]; 9.5 weeks after treatment) was “significantly decreased”, the “time after Dox treatment until Dox-induced cardiac dysfunction occurred” value ([4]; accumulative dose of 24 mg/kg body weight in mice) was ≥ 8 weeks and the cardiomyocytes apoptosis (cardiomyocytes [5]) was “significantly increased cardiomyocytes apoptosis”. For the same molecule, the Body weight [13] was “started to lose weight at about day 8 to 10; also recorded: significant loss in weight; also recorded: decreased weight”, the “Survival (mice survived / mice in group)” value ([13]; DOX halted after 4th injection, up to day 38-40) was 4/10 and the “Body weight loss, DOX vs DOX+HNG” value ([13]; day 29, p<0.05) was “lost more weight than the mice treated with DOX+HNG; also recorded: losing significantly more weight”. The “incidence of congestive heart failure” value ([16]; cumulative dose of 400 mg/m^2) was 3 to 5%, the “incidence of congestive heart failure” value ([16]; cumulative dose of 550 mg/m^2) was 7 to 26% and the “mice died before the termination of the experiment” value ([6]; 10 mice per group, 10 weeks) was “three”. The Heart weight ([17]; Example 1 mice at sacrifice) was “significantly lower than the non-treated and HNG treated mice; also recorded: smaller hearts than non-treated and HNG treated mice”, the ejection fraction [17, 20] was “decrease in ejection fraction; also recorded: lower ejection fraction” and the fractional ventricular shortening [17, 20] was “decrease; also recorded: lower fractional shortening”. For the same molecule, the Ucp2 protein expression ([8]; compared to control) was “significantly decreased Ucp2 protein expression”, the “body weight (BW) at the end of 10 weeks” value [9] was “significantly decreased body weight” and the “expression levels of ANF mRNA” value [10] was “significantly increased”.
In the case of “HN-C8P: HN mutant, Cys8 to Pro (MAPRGFSPLLLLTSEIDLPVKRRA; UniProt Q8IVG9 1-24, looked up, variant C8P)”, the “Characteristics: BAX binding” value (BAX) is given as “Loss of BAX binding” and the “Cytoprotective Action” value (cells) is given as “Not effective, blocks intracellular”.
